Among the data in patent US20250361230A1, “LATS Inhibitors and Uses Thereof” (The USA, as Represented by the Secretary, Dept. of Heath …, priority 2022, published 2025) are IC50 values, retold here.

As a reminder, the IC50 is the point on the concentration scale where inhibition reaches its midpoint.

Format in all cases: biochemical
For one experiment, the target named is T1, LATS1 (Homo sapiens, UniProt O95835).
T1 sequence (O95835 1-1130): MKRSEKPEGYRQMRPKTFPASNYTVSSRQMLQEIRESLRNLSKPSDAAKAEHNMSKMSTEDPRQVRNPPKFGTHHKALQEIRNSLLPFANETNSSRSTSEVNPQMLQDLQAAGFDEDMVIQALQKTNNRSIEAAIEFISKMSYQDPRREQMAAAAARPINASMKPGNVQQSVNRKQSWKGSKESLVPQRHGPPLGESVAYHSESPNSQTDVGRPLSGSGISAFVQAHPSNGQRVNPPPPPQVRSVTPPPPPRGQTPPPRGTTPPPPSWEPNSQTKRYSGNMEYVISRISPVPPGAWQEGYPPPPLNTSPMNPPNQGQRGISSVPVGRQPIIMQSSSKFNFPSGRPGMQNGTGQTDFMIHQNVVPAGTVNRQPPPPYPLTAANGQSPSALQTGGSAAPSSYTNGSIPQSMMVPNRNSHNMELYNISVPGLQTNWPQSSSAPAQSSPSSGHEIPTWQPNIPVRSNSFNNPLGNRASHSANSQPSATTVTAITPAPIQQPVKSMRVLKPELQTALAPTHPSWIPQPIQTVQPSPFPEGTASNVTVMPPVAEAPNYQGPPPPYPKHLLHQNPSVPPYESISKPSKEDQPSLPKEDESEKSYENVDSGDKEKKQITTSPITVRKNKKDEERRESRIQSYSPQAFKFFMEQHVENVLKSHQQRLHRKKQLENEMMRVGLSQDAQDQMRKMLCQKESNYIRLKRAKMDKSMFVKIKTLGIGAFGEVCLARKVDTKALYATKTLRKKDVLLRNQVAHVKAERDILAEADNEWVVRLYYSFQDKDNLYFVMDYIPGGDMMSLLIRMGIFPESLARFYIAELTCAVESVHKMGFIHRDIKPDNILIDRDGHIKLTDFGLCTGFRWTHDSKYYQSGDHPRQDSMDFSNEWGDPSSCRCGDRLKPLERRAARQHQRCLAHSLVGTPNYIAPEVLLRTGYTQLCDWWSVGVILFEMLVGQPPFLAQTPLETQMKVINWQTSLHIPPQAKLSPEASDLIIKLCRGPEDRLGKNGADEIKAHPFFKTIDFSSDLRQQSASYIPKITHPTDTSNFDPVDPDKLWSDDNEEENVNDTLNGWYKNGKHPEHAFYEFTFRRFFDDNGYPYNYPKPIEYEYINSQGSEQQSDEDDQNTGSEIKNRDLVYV
The experiment can be described thus: RBC HotSpot kinase assay (33P-ATP, P81 filter-binding), LATS1. As to conditions: Table 28, biochemical kinase assay; read-out: LATS1 IC50. The essentials: (§1)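 Compounds were run as single 10-point titrations to give IC50 values in nM. Each kinase was mixed with substrate and cofactors in 20 mM Hepes pH 7.5 reaction buffer with 1% DMSO, then exposed to compound for 20 min. 33P-ATP was added for a 2 h room-temperature reaction, with activity measured by P81 filter binding.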

For the next experiment, the target named is AKT (Homo sapiens, UniProt P31749). The experiment can be described thus: RBC HotSpot kinase assay (33P-ATP, P81 filter-binding), AKT. As to conditions: Table 28, biochemical kinase assay; read-out: AKT IC50. In outline: as §1
AKT, sequence (P31749 whole entry): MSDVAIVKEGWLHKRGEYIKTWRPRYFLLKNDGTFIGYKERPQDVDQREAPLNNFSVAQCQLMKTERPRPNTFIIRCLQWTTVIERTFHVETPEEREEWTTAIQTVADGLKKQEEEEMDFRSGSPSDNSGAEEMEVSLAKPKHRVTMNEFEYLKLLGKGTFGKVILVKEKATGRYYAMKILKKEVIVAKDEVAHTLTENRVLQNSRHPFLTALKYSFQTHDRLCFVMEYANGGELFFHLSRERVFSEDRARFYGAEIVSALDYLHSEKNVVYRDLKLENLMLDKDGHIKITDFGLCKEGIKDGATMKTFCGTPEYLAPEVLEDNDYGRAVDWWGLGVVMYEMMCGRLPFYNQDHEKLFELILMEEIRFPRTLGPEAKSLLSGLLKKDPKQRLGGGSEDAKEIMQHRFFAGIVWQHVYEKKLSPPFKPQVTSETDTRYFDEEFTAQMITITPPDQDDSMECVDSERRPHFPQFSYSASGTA
For the next experiment, the target named is T2, LATS2 (Homo sapiens, UniProt Q9NRM7).
T2 sequence (Q9NRM7 1-1088): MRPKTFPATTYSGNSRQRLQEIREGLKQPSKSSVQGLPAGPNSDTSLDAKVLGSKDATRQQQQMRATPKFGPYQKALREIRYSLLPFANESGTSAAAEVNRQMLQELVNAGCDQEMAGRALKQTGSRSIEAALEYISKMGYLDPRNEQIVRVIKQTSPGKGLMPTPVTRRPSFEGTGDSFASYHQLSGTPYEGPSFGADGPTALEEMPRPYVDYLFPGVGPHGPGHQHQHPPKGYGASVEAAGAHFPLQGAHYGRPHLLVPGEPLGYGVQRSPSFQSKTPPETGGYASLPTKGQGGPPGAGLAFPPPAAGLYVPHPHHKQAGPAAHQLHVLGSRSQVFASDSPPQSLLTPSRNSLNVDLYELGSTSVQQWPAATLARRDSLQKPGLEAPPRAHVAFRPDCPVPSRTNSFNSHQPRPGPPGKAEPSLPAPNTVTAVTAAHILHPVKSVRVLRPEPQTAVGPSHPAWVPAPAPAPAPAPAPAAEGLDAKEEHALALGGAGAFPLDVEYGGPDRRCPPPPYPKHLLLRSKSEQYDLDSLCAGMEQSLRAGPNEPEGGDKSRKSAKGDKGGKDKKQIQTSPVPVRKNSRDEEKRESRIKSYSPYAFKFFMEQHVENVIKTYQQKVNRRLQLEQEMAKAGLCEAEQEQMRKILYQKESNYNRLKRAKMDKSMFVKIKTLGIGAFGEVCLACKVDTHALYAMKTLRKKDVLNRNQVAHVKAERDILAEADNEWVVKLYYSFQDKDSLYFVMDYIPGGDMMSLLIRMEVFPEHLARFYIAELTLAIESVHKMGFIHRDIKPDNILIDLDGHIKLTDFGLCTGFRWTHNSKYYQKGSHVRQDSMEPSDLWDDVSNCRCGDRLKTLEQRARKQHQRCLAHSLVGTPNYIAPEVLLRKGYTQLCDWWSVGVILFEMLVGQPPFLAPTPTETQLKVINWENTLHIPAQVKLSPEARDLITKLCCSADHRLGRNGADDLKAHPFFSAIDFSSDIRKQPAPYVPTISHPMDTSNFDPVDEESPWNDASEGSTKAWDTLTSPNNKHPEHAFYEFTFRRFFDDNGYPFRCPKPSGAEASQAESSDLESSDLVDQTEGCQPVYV
The experiment can be described thus: RBC HotSpot kinase assay (33P-ATP, P81 filter-binding), LATS2. As to conditions: Table 28, biochemical kinase assay; read-out: LATS2 IC50. The essentials: as §1

`CC(C)(O)C#Cc1cc(-c2ccnc3[nH]ccc23)ccc1CN` [Compound 244, 4-(2-(aminomethyl)-5-(1H-pyrrolo[2,3-b]pyridin-4-yl)phenyl)-2-methylbut-3-yn-2-ol]: the values for the IC50 on LATS1, at AKT and on LATS2 were 20 nM, 1250 nM and 28 nM, respectively.
The corresponding values for `NCc1ccc(-c2ccnc3[nH]ccc23)cc1-c1ccccc1` [Compound 246, (5-(1H-pyrrolo[2,3-b]pyridin-4-yl)-[1,1′-biphenyl]-2-yl)methanamine] are 15 nM, 378 nM and 20 nM.
The corresponding values for `NCc1ccc(-c2ccnc3[nH]cc(-c4cccc(F)c4)c23)cc1` [Compound 247, (4-(3-(3-fluorophenyl)-1H-pyrrolo[2,3-b]pyridin-4-yl)phenyl) methanamine] are 21 nM, 1410 nM and 11 nM.
The corresponding values for `NCc1ccc(-c2ccnc3[nH]cc(-c4ccccc4F)c23)cc1` [Compound 248, (4-(3-(2-fluorophenyl)-1H-pyrrolo[2,3-b]pyridin-4-yl)phenyl) methanamine] are 50 nM, 2840 nM and 10 nM.
With `NCc1ccc(-c2ccnc3[nH]cc(Cl)c23)cc1Cl` [Compound 249, (2-chloro-4-(3-chloro-1H-pyrrolo[2,3-b]pyridin-4-yl)phenyl) methanamine], the IC50 at LATS1 came out at 8.4 nM; on AKT, 218 nM; at LATS2, 7.9 nM.
On to `Cc1cc2c(-c3ccc(CN)cc3)ccnc2[nH]1` [Compound 251, (4-(2-methyl-1H-pyrrolo[2,3-b]pyridin-4-yl)phenyl) methanamine], for which the IC50 is 893 nM at LATS1, > 10000 nM on AKT and 389 nM at LATS2.
The corresponding values for `Cc1cc(-c2ccnc3[nH]ccc23)cnc1CN` [Compound 252, (3-methyl-5-(1H-pyrrolo[2,3-b]pyridin-4-yl)pyridin-2-yl)methanamine] are 8.2 nM, 3160 nM and 12 nM.
Turning to `Cc1cc(-c2ccc(CN)cc2)c2cc[nH]c2n1` [Compound 256, (4-(6-methyl-1H-pyrrolo[2,3-b]pyridin-4-yl)phenyl) methanamine], the IC50 at LATS1 is 9000 nM; on AKT, > 10000 nM; at LATS2, 4260 nM.
The corresponding values for `Cc1c[nH]c2nccc(-c3ccc(CN)cc3)c12` [Compound 257, (4-(3-methyl-1H-pyrrolo[2,3-b]pyridin-4-yl)phenyl) methanamine] are 13 nM, 625 nM and 12 nM.
Regarding `O=C1NCc2cc(-c3ccnc4[nH]ccc34)ccc21` [Compound 258, 5-(1H-pyrrolo[2,3-b]pyridin-4-yl)isoindolin-1-one], the results for the IC50 at LATS1, on AKT and at LATS2 were 231 nM, > 10000 nM and 65 nM, respectively.
The corresponding values for `O=C1NCc2ccc(-c3ccnc4[nH]ccc34)cc21` [Compound 259, 6-(1H-pyrrolo[2,3-b]pyridin-4-yl)isoindolin-1-one] are 110 nM, > 10000 nM and 253 nM.
The corresponding values for `O=C1NCCc2cc(-c3ccnc4[nH]ccc34)ccc21` [Compound 260, 6-(1H-pyrrolo[2,3-b]pyridin-4-yl)-3,4-dihydroisoquinol in-1(2H)-one] are 87 nM, 6600 nM and 52 nM.
In the case of `NCc1ccc(-c2cc(-c3ccncc3)nc3[nH]ccc23)cc1` [Compound 261, (4-(6-(pyridin-4-yl)-1H-pyrrolo[2,3-b]pyridin-4-yl)phenyl) methanamine], the figures for the IC50 at LATS1, on AKT and at LATS2 were 34 nM, 8830 nM and 10 nM, respectively.
The corresponding values for `NCc1ccc(-c2cc(Cl)nc3[nH]ccc23)cc1` [Compound 262, (4-(6-chloro-1H-pyrrolo[2,3-b]pyridin-4-yl)phenyl) methanamine] are > 10000 nM, > 10000 nM and 4420 nM.
Turning to `NCc1ccc(-c2ccnc3[nH]ccc23)c(F)c1` [Compound 263, (3-fluoro-4-(1H-pyrrolo[2,3-b]pyridin-4-yl)phenyl) methanamine], the 50% inhibitory concentration (IC50) came out at 34 nM on LATS1, 1190 nM on AKT and 72 nM at LATS2.
The corresponding values for `NC(=O)c1ccc(-c2ccnc3[nH]ccc23)cc1` [Compound 264, 4-(1H-pyrrolo[2,3-b]pyridin-4-yl)benzamide] are 343 nM, > 10000 nM and 207 nM.
As for `c1cc(-c2ccc3c(c2)CNC3)c2cc[nH]c2n1` [Compound 265, 4-(isoindolin-5-yl)-1H-pyrrolo[2,3-b]pyridine], the values for the IC50 at LATS1, on AKT and at LATS2 were 14 nM, 517 nM and 13 nM, respectively.
The corresponding values for `COc1cc(-c2ccnc3[nH]ccc23)ccc1CN` [Compound 268, (2-methoxy-4-(1H-pyrrolo[2,3-b]pyridin-4-yl)phenyl) methanamine] are 24 nM, 618 nM and 24 nM.
For the compound `CCOc1cc(-c2ccnc3[nH]ccc23)ccc1CN` [Compound 269, (2-ethoxy-4-(1H-pyrrolo[2,3-b]pyridin-4-yl)phenyl) methanamine], the IC50 worked out at 40 nM on LATS1, 789 nM at AKT and 36 nM on LATS2.
Turning to `NCc1ccc(-c2ccnc3[nH]ccc23)cc1F` [Compound 270, (2-fluoro-4-(1H-pyrrolo[2,3-b]pyridin-4-yl)phenyl) methanamine], the IC50 on LATS1 is 28 nM; on AKT it was 874 nM; on LATS2, 34 nM.
The corresponding values for `NCc1ccc(-c2c(Cl)cnc3[nH]ccc23)cc1` [Compound 272, (4-(5-chloro-1H-pyrrolo[2,3-b]pyridin-4-yl)phenyl) methanamine] are 447 nM, 3100 nM and 268 nM.
The corresponding values for `NCc1ccc(-c2c(F)cnc3[nH]ccc23)cc1` [Compound 273, (4-(5-fluoro-1H-pyrrolo[2,3-b]pyridin-4-yl)phenyl) methanamine] are 90 nM, 1390 nM and 148 nM.
